ChEMBL document CHEMBL1122324, “New antihypertensive cannabinoids” (1983)

Legend:
Conditions in all cases: route oral
Rattus norvegicus [1] = assay: percentage decrease in heart rate after 24 hr at a dose of 1 mg/kg administered perorally in rats.; assay type: functional
Rattus norvegicus [2] = assay: percentage decrease in heart rate after 24 hr at a dose of 3 mg/kg administered perorally in rats.; assay type: functional
Rattus norvegicus [3] = assay: percentage decrease in heart rate after 24 hr at a dose of 30 mg/kg administered perorally in rats.; assay type: functional
Rattus norvegicus [4] = assay: percentage decrease in heart rate after 4 hr at a dose of 10 mg/kg administered perorally in rats.; assay type: functional
Rattus norvegicus [5] = assay: percentage decrease in heart rate after 4 hr at a dose of 1 mg/kg administered perorally in rats.; assay type: functional
Rattus norvegicus [6] = assay: percentage decrease in heart rate after 4 hr at a dose of 3 mg/kg administered perorally in rats.; assay type: functional
Rattus norvegicus [7] = assay: percentage decrease in heart rate after 4 hr at a dose of 30 mg/kg administered perorally in rats.; assay type: functional
Rattus norvegicus [8] = assay: percentage decrease in heart rate after 6 hr at a dose of 10 mg/kg administered perorally in rats.; assay type: functional
Rattus norvegicus [9] = assay: percentage decrease in heart rate after 6 hr at a dose of 1 mg/kg administered perorally in rats.; assay type: functional
Rattus norvegicus [10] = assay: percentage decrease in heart rate after 6 hr at a dose of 3 mg/kg administered perorally in rats.; assay type: functional
Rattus norvegicus [11] = assay: percentage decrease in heart rate after 6 hr at a dose of 30 mg/kg administered perorally in rats.; assay type: functional
Rattus norvegicus [12] = assay: percentage decrease in heart rate after 1 hr at a dose of 10 mg/kg administered perorally in rats.; assay type: functional
Rattus norvegicus [13] = assay: percentage decrease in heart rate after 1 hr at a dose of 3 mg/kg administered perorally in rats.; assay type: functional
Rattus norvegicus [14] = assay: percentage decrease in heart rate after 24 hr at a dose of 10 mg/kg administered perorally in rats.; assay type: functional
Rattus norvegicus [15] = assay: percentage decrease in heart rate after 1 hr at a dose of 1 mg/kg administered perorally in rats.; assay type: functional
Rattus norvegicus [16] = assay: Cumulative effect on spontaneous motor activity in rats at 10 mg/kg given perorally; assay type: functional
Rattus norvegicus [17] = assay: Cumulative effect on spontaneous motor activity in rats at 100 mg/kg given perorally; assay type: functional
Rattus norvegicus [18] = assay: Cumulative effect on spontaneous motor activity in rats at 30 mg/kg given perorally; assay type: functional
Rattus norvegicus [19] = assay: Cumulative effect on spontaneous motor activity in rats at 300 mg/kg given perorally; values less than 25 % are inactive; assay type: functional
Rattus norvegicus [20] = assay: Effect on spontaneous motor activity in rats after 1 hr at 10 mg/kg given perorally; assay type: functional
Rattus norvegicus [21] = assay: Effect on spontaneous motor activity in rats after 1 hr at 100 mg/kg given perorally; assay type: functional
Rattus norvegicus [22] = assay: Effect on spontaneous motor activity in rats after 1 hr at 30 mg/kg given perorally; assay type: functional
Rattus norvegicus [23] = assay: Effect on spontaneous motor activity in rats after 1 hr at 300 mg/kg given perorally; values less than 25 % are inactive; assay type: functional
Rattus norvegicus [24] = assay: Effect on spontaneous motor activity in rats after 2 hr at 10 mg/kg given perorally; assay type: functional
Rattus norvegicus [25] = assay: Effect on spontaneous motor activity in rats after 2 hr at 100 mg/kg given perorally; assay type: functional
Rattus norvegicus [26] = assay: Effect on spontaneous motor activity in rats after 2 hr at 30 mg/kg given perorally; values less than 25 % are inactive; assay type: functional
Rattus norvegicus [27] = assay: Effect on spontaneous motor activity in rats after 2 hr at 300 mg/kg given perorally; values less than 25 % are inactive; assay type: functional
Rattus norvegicus [28] = assay: Percentage decrease in systolic blood pressure after 6 hr at 3 mg/kg administered perorally in rats; assay type: functional, Artery
Rattus norvegicus [29] = assay: Percentage decrease in systolic blood pressure (heart rate) after 4 hr at 10 mg/kg administered perorally in rats; assay type: functional, Artery
Rattus norvegicus [30] = assay: Percentage decrease in systolic blood pressure (heart rate) after 6 hr at 10 mg/kg administered perorally in rats; assay type: functional, Artery
Rattus norvegicus [31] = assay: Percentage decrease in systolic blood pressure (heart rate) after 6 hr at 30 mg/kg administered perorally in rats; assay type: functional, Artery
Rattus norvegicus [32] = assay: Percentage decrease in systolic blood pressure after 1 hr at 1 mg/kg administered perorally in rats; assay type: functional, Artery
Rattus norvegicus [33] = assay: Percentage decrease in systolic blood pressure after 1 hr at 3 mg/kg administered perorally in rats; assay type: functional, Artery
Rattus norvegicus [34] = assay: Percentage decrease in systolic blood pressure after 24 hr at 1 mg/kg administered perorally in rats; assay type: functional, Artery
Rattus norvegicus [35] = assay: Percentage decrease in systolic blood pressure after 24 hr at 10 mg/kg administered perorally in rats; assay type: functional, Artery
Rattus norvegicus [36] = assay: Percentage decrease in systolic blood pressure after 24 hr at 3 mg/kg administered perorally in rats; assay type: functional, Artery
Rattus norvegicus [37] = assay: Percentage decrease in systolic blood pressure after 4 hr at 1 mg/kg administered perorally in rats; assay type: functional, Artery
Rattus norvegicus [38] = assay: Percentage decrease in systolic blood pressure (heart rate) after 1 hr at 10 mg/kg administered perorally in rats; assay type: functional, Artery
Rattus norvegicus [39] = assay: Percentage decrease in systolic blood pressure after 4 hr at 30 mg/kg administered perorally in rats; assay type: functional, Artery
Rattus norvegicus [40] = assay: Percentage decrease in systolic blood pressure after 6 hr at 1 mg/kg administered perorally in rats; assay type: functional, Artery
Rattus norvegicus [41] = assay: Percentage decrease in systolic blood pressure (heart rate) after 24 hr at 30 mg/kg administered perorally in rats; assay type: functional, Artery
Rattus norvegicus [42] = assay: Percentage decrease in systolic blood pressure after 4 hr at 3 mg/kg administered perorally in rats; assay type: functional, Artery
Rattus norvegicus [43] = assay: percentage decrease in heart rate after 4 hr at a dose of 100 mg/kg administered perorally in rats; assay type: functional
Rattus norvegicus [44] = assay: Percentage decrease in systolic blood pressure after 4 hr at 100 mg/kg administered perorally in rats; assay type: functional, Artery
Rattus norvegicus [45] = assay: Percentage decrease in systolic blood pressure after 4 hr at 10 mg/kg administered perorally in rats; assay type: functional, Artery
Rattus norvegicus [46] = assay: percentage decrease in heart rate after 24 hr at a dose of 30 mg/kg administered perorally in rats; assay type: functional
Rattus norvegicus [47] = assay: percentage decrease in heart rate after 6 hr at a dose of 30 mg/kg administered perorally in rats; assay type: functional
Rattus norvegicus [48] = assay: percentage decrease in heart rate after 1 hr at a dose of 30 mg/kg administered perorally in rats; assay type: functional
Rattus norvegicus [49] = assay: Percentage decrease in systolic blood pressure after 6 hr at 30 mg/kg administered perorally in rats; assay type: functional, Artery
Rattus norvegicus [50] = assay: Percentage decrease in systolic blood pressure after 1 hr at 30 mg/kg administered perorally in rats; assay type: functional, Artery
Rattus norvegicus [51] = assay: Percentage decrease in systolic blood pressure after 24 hr at 30 mg/kg administered perorally in rats; assay type: functional, Artery
Rattus norvegicus [52] = assay: percentage decrease in heart rate after 4 hr at a dose of 30 mg/kg administered perorally in rats; assay type: functional

CCCCCC(C)C(C)c1cc(O)c2c(c1)OC(C)(C)C1=C2CN(C(=O)CO)CC1 (stereo unspecified)
Heart rate (Rattus norvegicus [1]): -18%
Heart rate (Rattus norvegicus [2]): 6%
Heart rate (Rattus norvegicus [3]): -1%
Heart rate (Rattus norvegicus [4]): 25%
Heart rate (Rattus norvegicus [5]): -18%
Heart rate (Rattus norvegicus [6]): -1%
Heart rate (Rattus norvegicus [7]): 25%
Heart rate (Rattus norvegicus [8]): 7%
Heart rate (Rattus norvegicus [9]): -22%
Heart rate (Rattus norvegicus [10]): -12%
Heart rate (Rattus norvegicus [11]): 6%
Heart rate (Rattus norvegicus [12]): 12%
Heart rate (Rattus norvegicus [13]): -3%
Heart rate (Rattus norvegicus [14]): 11%
Heart rate (Rattus norvegicus [15]): -18%
Activity (Rattus norvegicus [16]): 50%
Activity (Rattus norvegicus [17]): 30%
Activity (Rattus norvegicus [18]): 60%
Activity (Rattus norvegicus [19]): -45%
Activity (Rattus norvegicus [20]): 38%
Activity (Rattus norvegicus [21]): 29%
Activity (Rattus norvegicus [22]): 67%
Activity (Rattus norvegicus [23]): -46%
Activity (Rattus norvegicus [24]): 116%
Activity (Rattus norvegicus [25]): 32%
Activity (Rattus norvegicus [26]): 23%
Activity (Rattus norvegicus [27]): -42%
Decrease in Systolic blood pressure (Rattus norvegicus [28]): 3%
Decrease in Systolic blood pressure (Rattus norvegicus [29]): 34%
Decrease in Systolic blood pressure (Rattus norvegicus [30]): 19%
Decrease in Systolic blood pressure (Rattus norvegicus [31]): 24%
Decrease in Systolic blood pressure (Rattus norvegicus [32]): 0%
Decrease in Systolic blood pressure (Rattus norvegicus [33]): 9%
Decrease in Systolic blood pressure (Rattus norvegicus [34]): -5%
Decrease in Systolic blood pressure (Rattus norvegicus [35]): 4%
Decrease in Systolic blood pressure (Rattus norvegicus [36]): 3%
Decrease in Systolic blood pressure (Rattus norvegicus [37]): 0%
Decrease in Systolic blood pressure (Rattus norvegicus [38]): 20%
Decrease in Systolic blood pressure (Rattus norvegicus [39]): 26%
Decrease in Systolic blood pressure (Rattus norvegicus [40]): -5%
Decrease in Systolic blood pressure (Rattus norvegicus [41]): 16%
Decrease in Systolic blood pressure (Rattus norvegicus [42]): 15%

CCCCCC(C)C(C)c1cc(O)c2c(c1)OC(C)(C)C1=C2CN(C(=O)CCCO)CC1 (stereo unspecified)
Heart rate (Rattus norvegicus [43]): 19%
Decrease in Systolic blood pressure (Rattus norvegicus [44]): 0%

C#CCN1CCC2=C(C1)c1c(O)cc(C(C)C(C)CCCCC)cc1OC2(C)C (stereo unspecified)
Decrease in Systolic blood pressure (Rattus norvegicus [35]): 27%
Decrease in Systolic blood pressure (Rattus norvegicus [36]): 4%
Decrease in Systolic blood pressure (Rattus norvegicus [45]): 23%
Decrease in Systolic blood pressure (Rattus norvegicus [42]): 7%

CCCCCC(C)C(C)c1cc(O)c2c(c1)OC(C)(C)C1=C2CN(C(=O)CN)CC1 (stereo unspecified)
Heart rate (Rattus norvegicus [46]): 10%
Heart rate (Rattus norvegicus [47]): 13%
Heart rate (Rattus norvegicus [48]): 9%
Decrease in Systolic blood pressure (Rattus norvegicus [49]): 8%
Decrease in Systolic blood pressure (Rattus norvegicus [50]): 12%
Decrease in Systolic blood pressure (Rattus norvegicus [51]): 2%
Decrease in Systolic blood pressure (Rattus norvegicus [39]): 10%
Heart rate (Rattus norvegicus [52]): -5%
